Laboratory results published in patent publication US11396517B1, “Exo-aza spiro inhibitors of menin-MLL interaction” (Janssen Pharmaceutica NV, priority 2017, dated 2022).
Like-named read-outs stand apart in the source and are kept apart here.

Key:
[1] = biological target: T1, menin (Homo sapiens, UniProt O00255, T541A); assay: Menin/MLL homogenous time-resolved fluorescence (HTRF) assay; format: binding
T1 construct: Menin (a.a. 1-610-6×his tag)
T1 sequence (O00255 with tags, fused parts or gaps T541A): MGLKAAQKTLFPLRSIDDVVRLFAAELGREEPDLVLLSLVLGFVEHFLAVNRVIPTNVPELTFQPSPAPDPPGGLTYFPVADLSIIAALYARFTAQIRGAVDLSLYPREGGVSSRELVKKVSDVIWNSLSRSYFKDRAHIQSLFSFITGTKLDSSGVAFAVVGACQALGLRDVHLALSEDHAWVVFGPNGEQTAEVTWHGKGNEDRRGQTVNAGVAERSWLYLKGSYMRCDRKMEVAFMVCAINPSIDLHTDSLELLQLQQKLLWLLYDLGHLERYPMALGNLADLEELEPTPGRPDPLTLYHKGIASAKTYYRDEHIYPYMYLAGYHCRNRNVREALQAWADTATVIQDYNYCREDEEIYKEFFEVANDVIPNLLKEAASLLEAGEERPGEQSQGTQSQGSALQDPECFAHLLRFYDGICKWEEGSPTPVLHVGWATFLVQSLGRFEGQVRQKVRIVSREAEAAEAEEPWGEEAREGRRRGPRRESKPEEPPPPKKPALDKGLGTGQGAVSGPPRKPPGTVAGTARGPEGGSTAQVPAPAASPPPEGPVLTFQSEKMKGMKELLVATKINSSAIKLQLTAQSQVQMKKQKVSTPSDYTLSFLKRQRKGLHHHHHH
In short: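 Displacement of 75 nM FITC-MBM1 from terbium-cryptate-labeled His-tagged menin 1-610 ([…]) was read as the 520/490 nm HTRF ratio. Compound (11-point, 3-fold series) got 5 min with menin before peptide, then 15 min at ambient; 0.5% DMSO, Tris pH 7.5.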

[2] = tested on: MV-4-11; assay: Proliferation assay A (spheroid assay) MV-4-11; format: cell-based, human; details: MV-4-11 cells, 8 d, AUC of confluence against time, absolute IC50, read-out: (3a) Spheroid assay MV-4-11 (IC50(μM)) Assay A
Procedure: 3a) Proliferation Assay A
The anti-proliferative effect of menin/MLL protein/protein interaction inhibitor test compounds was assessed in human leukemia cell lines. The cell lines MV-4-11 and MOLM14 harbor MILL translocations and express the MILL fusion proteins MLL-AF4 and MLL-AF9, respectively, as well as the wildtype protein from the second allele. […] K562 was used as a control cell line containing two MLL wildtype alleles in order to exclude compounds that display general cytotoxic effects.
MV-4-11 and MOLM14 were cultured in RPMI-1640 (Sigma Aldrich) supplemented with 10% fetal bovine serum (HyClone), 2 mM L-glutamine (Sigma Aldrich) and 50 μg/ml gentamycin (Gibco). K562 were propagated in RPMI-1640 (Sigma Aldrich) supplemented with 20% fetal bovine serum (HyClone), 2 mM L-glutamine (Sigma Aldrich) and 50 μg/ml gentamycin (Gibco).
In order to assess the anti-proliferative effects, 1,500 MV-4-11, 300 MOLM14 or 750 K562 cells were seeded in 200 μl media per well in 96-well round bottom, ultra-low attachment plates (Costar, catalogue number 7007). Cell seeding numbers were chosen based on growth curves to ensure linear growth throughout the experiment. Test compounds were added at different concentrations and the DMSO content was normalized to 0.3%. Cells were incubated for 8 d at 37° C. and 5% CO2. Spheroid like growth was monitored in real-time by live-cell imaging (IncuCyteZOOM, Essenbio, 4× objective) acquiring one image every four hours for 8 d. Confluence (%) as a measure of spheroid size was determined using an integrated analysis tool.
In order to determine the cumulative effect of the test compounds over time, the area under the curve (AUC) in a plot of confluence against time was calculated. Confluence at the beginning of the experiment (t=0) was used as baseline for the AUC calculation.
Absolute IC50 values were calculated according to the following procedure: % Control=(AUC sample/AUC control)*100
AUC control mean AUC of control values (cells without compound/DMSO as vehicle control)
A non-linear curve fit was applied using the least squares (ordinary) fit method to the plot of % control versus compound concentration. Based on this, the absolute IC50 value (half maximal inhibitory concentration of the test compound causing an anti-proliferative effect of 50% relative to the vehicle control) was calculated.

[3] = location 2, read-out: (2) location 2 Menin HTRF assay (IC50 (nM))
[4] = location 1, read-out: (2) location 1 Menin HTRF assay (IC50 (nM))

SMILES | IC50 [1, 3] [nM] | IC50 ([2]; Homo sapiens, MV4-11, 192 h) [µM] | IC50 [1, 4] [nM] | IC50 [2] [µM]
O=S(=O)(NC1CC2(CCN(c3ncnc4sc(CC(F)(F)F)cc34)C2)C1)c1ccccc1 (mixture of isomers) [Compound 22] | 450 | 3.55 | – | –
FC(F)(F)Cc1cc2c(N3CCC4(CC(Nc5ccccc5)C4)C3)ncnc2s1 (mixture of isomers) [Compound 35] | 48.6 | 4.9 | – | –
CN(C)CC1CC2(CCN(c3ncnc4sc(CC(F)(F)F)cc34)C2)C1 (mixture of isomers) [Compound 196] | 133 | 3.91 | – | –
Nc1nc(N2CCC3(CC(NCc4ccccc4)C3)C2)c2cc(CC(F)(F)F)sc2n1 (mixture of isomers) [Compound 263] | 47.3 | 1.23 | – | –
CNS(=O)(=O)c1ccc(NC2CC3(CCN(c4ncnc5sc(CC(F)(F)F)cc45)C3)C2)cc1 (mixture of isomers) [Compound 316] | 8.8 | 1.26 | – | –
FC(F)(F)Cc1cc2c(N3CCC4(CC(Nc5ccc(-c6cn[nH]c6)cc5)C4)C3)ncnc2s1 (mixture of isomers) [Compound 326] | 20.1 | 0.91 | – | –
CC(=O)Nc1ccc(NC2CC3(CCN(c4ncnc5sc(CC(F)(F)F)cc45)C3)C2)cc1 (mixture of isomers) [Compound 330] | 19.6 | 1.26 | – | –
N#CCc1ccc(NC2CC3(CCN(c4nc(N)nc5sc(CC(F)(F)F)cc45)C3)C2)cc1 (mixture of isomers) [Compound 377] | 7.5 | 1.12 | – | –
CNc1nc(N2CCC3(CC(Nc4ccc5[nH]c(=O)[nH]c5c4)C3)C2)c2cc(CC(F)(F)F)sc2n1 (mixture of isomers) [Compound 393] | 68.3 | 2.6 | – | –
CNc1nc(N2CCC3(CC(Nc4ccc5oc(=O)[nH]c5c4)C3)C2)c2cc(CC(F)(F)F)sc2n1 (mixture of isomers) [Compound 396] | 17.8 | 1.8 | – | –
CNS(=O)(=O)c1ccc(NC2CCC3(C2)CN(c2ncnc4sc(CC(F)(F)F)cc24)C3)cc1 (racemic) [Compound 279] | 82.9 | > 3.75 | – | –
FC(F)(F)Cc1cc2c(N3CCC4(CCC(NCc5ccccc5)CC4)C3)ncnc2s1 (single isomer, unassigned) [Compound 2] | 84.5 | 1.64 | 91.2 | –
FC(F)(F)Cc1cc2c(N3CC[C@]4(CC[C@@H](NCc5ccccc5)C4)C3)ncnc2s1 (single isomer, unassigned) [Compound 5] | 63.8 | – | 304 | 1.69
N#CCc1ccc(NC2CC3(CCN(c4ncnc5sc(CC(F)(F)F)cc45)C3)C2)c(Cl)c1 (single isomer, unassigned) [Compound 208] | 37.7 | 3.16 | – | –
N#CCc1ccc(NC2CC3(CCN(c4ncnc5sc(CC(F)(F)F)cc45)C3)C2)cc1Cl (single isomer, unassigned) [Compound 211] | 18.2 | 2.13 | – | –
CNc1nc(N2CCC3(CC(Nc4ccccc4)C3)C2)c2cc(CC(F)(F)F)sc2n1 (single isomer, unassigned) [Compound 269] | 78.6 | > 3.75 | – | –
CNS(=O)(=O)c1ccc(N[C@H]2CCC3(C2)CN(c2ncnc4sc(CC(F)(F)F)cc24)C3)cc1 (single isomer, unassigned) [Compound 291] | 51.9 | > 3.75 | – | –

SMILES | IC50 [1, 3] [nM] | IC50 ([2]; Homo sapiens, MV4-11, 192 h) [µM] | IC50 [1, 4] [nM] | IC50 [2] [µM]
O=C1Cc2ccc(N[C@@H]3CCC4(C3)CN(c3ncnc5sc(CC(F)(F)F)cc35)C4)cc2N1 (single isomer, unassigned) [Compound 293] | 11 | 2.77 | – | –
O=c1[nH]c2ccc(N[C@@H]3CCC4(C3)CN(c3ncnc5sc(CC(F)(F)F)cc35)C4)cc2[nH]1 (single isomer, unassigned) [Compound 299] | 94.8 | > 3.75 | – | –
O=c1[nH]c2ccc(NC3CC4(CCN(c5ncnc6sc(CC(F)(F)F)cc56)C4)C3)cc2[nH]1 (single isomer, unassigned) [Compound 320] | 41.6 | 3.71 | – | –
O=c1[nH]c2ccc(NC3CC4(CCN(c5ncnc6sc(CC(F)(F)F)cc56)C4)C3)cc2[nH]1 (single isomer, unassigned) [Compound 321] | 915 | – | – | > 3.75
O=c1[nH]c2ccc(NC3CC4(CCN(c5ncnc6sc(CC(F)(F)F)cc56)C4)C3)cc2o1 (single isomer, unassigned) [Compound 323] | 26.4 | 3.66 | – | –
N#CCc1ccc(NC2CC3(CCN(c4nc(N)nc5sc(CC(F)(F)F)cc45)C3)C2)cc1 (single isomer, unassigned) [Compound 378] | 42.9 | > 3.75 | – | –
Nc1nc(N2CCC3(CC(Nc4ccc5[nH]c(=O)oc5c4)C3)C2)c2cc(CC(F)(F)F)sc2n1 (single isomer, unassigned) [Compound 385] | 27.2 | – | – | > 3.75
FC(F)(F)Cc1cc2c(N3CC4(CCC(Nc5ccccc5)C4)C3)ncnc2s1 (centres unmarked) [Compound 7] | 658 | 13.5 | – | –
CS(=O)(=O)Nc1ccc(C(=O)NC2CC3(CCN(c4ncnc5sc(CC(F)(F)F)cc45)C3)C2)cc1 (centres unmarked) [Compound 27] | 585 | 11.9 | – | –
FC(F)(F)Cc1cc2c(N3CCC4(CC(CNc5ccccc5)C4)C3)ncnc2s1 (centres unmarked) [Compound 38] | 447 | 5.21 | – | –
CN(CC1CC2(CCN(c3ncnc4sc(CC(F)(F)F)cc34)C2)C1)c1ccccc1 (centres unmarked) [Compound 41] | 339 | 10 | – | –
Cn1c(=O)[nH]c2cc(NC3CC4(CCN(c5ncnc6sc(CC(F)(F)F)cc56)C4)C3)ccc21 (centres unmarked) [Compound 89] | 27.8 | 2.73 | – | –
FC(F)(F)Cc1cc2c(N3CCC4(CC(Nc5ccc(-c6cc[nH]n6)cc5)C4)C3)ncnc2s1 (centres unmarked) [Compound 92] | 5.3 | 0.48 | – | –
O=C1Cc2ccc(NC3CCC4(C3)CN(c3ncnc5sc(CC(F)(F)F)cc35)C4)cc2N1 (centres unmarked) [Compound 292] | 81.3 | > 3.75 | – | –
FC(F)(F)Cc1cc2c(N3CC4(CCC(Nc5ccc(-c6cc[nH]n6)cc5)C4)C3)ncnc2s1 (centres unmarked) [Compound 301] | 32.3 | 1.76 | – | –
FC(F)(F)Cc1cc2c(N3CC4(CCC(Nc5ccc(-c6cn[nH]c6)cc5)C4)C3)ncnc2s1 (centres unmarked) [Compound 302] | 509 | 2.56 | – | –
